In paper PMC5218480 (PLoS ONE, 2017):

Tested on: MV-4-11 cells
Test: Gene expression microarray analysis (Affymetrix PrimeView) and GSEA
Assay type: cell-based, human
Design: RFU PODN (11730768_x_at) / Fold change /veh PODN (11730768_x_at) / RFU LINC00158 (11744669_a_at) / Fold change /veh LINC00158 (11744669_a_at) / RFU DUSP10 (11751237_a_at) / Fold change /veh DUSP10 (11751237_a_at) / RFU ID3 (11757404_x_at) / Fold change /veh ID3 (11757404_x_at) / RFU PLEKHG5 (11737974_s_at) / Fold change /veh PLEKHG5 (11737974_s_at) / RFU LRRC4B (11730491_at) / Fold change /veh LRRC4B (11730491_at) / RFU GIMAP4 (11747438_a_at) / Fold change /veh GIMAP4 (11747438_a_at) / RFU KRT8 (11758183_x_at) / Fold change /veh KRT8 (11758183_x_at) / RFU CNN1 (11734310_a_at) / Fold change /veh CNN1 (11734310_a_at) / RFU VPS37D (11726825_at) / Fold change /veh VPS37D (11726825_at) / RFU C10orf10 (11716522_x_at) / Fold change /veh C10orf10 (11716522_x_at) / RFU KIR2DL2 /// KIR2DL4 /// KIR2DL5A /// KIR2DL5B /// KIR2DS1 /// KIR2DS2 /// KIR2DS3 /// KIR2DS4 /// KIR3DL3 /// KIR3DL3 /// KIR3DS1 (11738374_at) / Fold change /veh KIR2DL2 /// KIR2DL4 /// KIR2DL5A /// KIR2DL5B /// KIR2DS1 /// KIR2DS2 /// KIR2DS3 /// KIR2DS4 /// KIR3DL3 /// KIR3DL3 /// KIR3DS1 (11738374_at) / RFU C1QL1 (11718748_at) / Fold change /veh C1QL1 (11718748_at) / RFU TMPRSS4 (11747572_a_at) / Fold change /veh TMPRSS4 (11747572_a_at) / RFU HAMP (11756126_x_at) / Fold change /veh HAMP (11756126_x_at) / RFU RNFT2 (11725882_a_at) / Fold change /veh RNFT2 (11725882_a_at) / RFU NR4A2 (11747474_a_at) / Fold change /veh NR4A2 (11747474_a_at) / RFU ABCC12 (11746883_a_at) / Fold change /veh ABCC12 (11746883_a_at) / RFU TMEM136 (11760407_x_at) / Fold change /veh TMEM136 (11760407_x_at) / RFU CLDN22 /// WWC2 (11732394_at) / Fold change /veh CLDN22 /// WWC2 (11732394_at) / RFU HLA-DPB1 (11760878_x_at) / Fold change /veh HLA-DPB1 (11760878_x_at) / RFU SPINT1 (11716480_a_at) / Fold change /veh SPINT1 (11716480_a_at) / RFU GAP43 (11754022_s_at) / Fold change /veh GAP43 (11754022_s_at) / RFU A4GNT (11735810_at) / Fold change /veh A4GNT (11735810_at) / RFU PRB3 (11715151_x_at) / Fold change /veh PRB3 (11715151_x_at) / RFU TUBB4B (11761932_at) / Fold change /veh TUBB4B (11761932_at) / RFU CAPN14 (11732068_a_at) / Fold change /veh CAPN14 (11732068_a_at) / RFU TMCC2 (11721928_a_at) / Fold change /veh TMCC2 (11721928_a_at) / RFU IRGQ (11745062_a_at) / Fold change /veh IRGQ (11745062_a_at) / RFU FAM174B (11720279_a_at) / Fold change /veh FAM174B (11720279_a_at) / RFU TMPRSS4 (11748680_a_at) / Fold change /veh TMPRSS4 (11748680_a_at) / RFU FAM212B (11763350_a_at) / Fold change /veh FAM212B (11763350_a_at) / RFU PLEKHG5 (11743358_a_at) / Fold change /veh PLEKHG5 (11743358_a_at) / RFU ZSCAN30 (11745921_a_at) / Fold change /veh ZSCAN30 (11745921_a_at) / RFU CMKLR1 (11741424_a_at) / Fold change /veh CMKLR1 (11741424_a_at) / RFU LOC101060620 /// MAPK8IP1 (11723275_at) / Fold change /veh LOC101060620 /// MAPK8IP1 (11723275_at) / RFU SPTSSB (11747773_x_at) / Fold change /veh SPTSSB (11747773_x_at) / RFU PRSS12 (11739890_at) / Fold change /veh PRSS12 (11739890_at) / RFU BIN1 (11741810_x_at) / Fold change /veh BIN1 (11741810_x_at) / RFU WNT11 (11732464_a_at) / Fold change /veh WNT11 (11732464_a_at) / RFU C10orf10 (11716521_a_at) / Fold change /veh C10orf10 (11716521_a_at) / RFU C5orf56 (11738089_at) / Fold change /veh C5orf56 (11738089_at) / RFU CYB561 (11721691_x_at) / Fold change /veh CYB561 (11721691_x_at) / RFU ANKRD19P (11752326_a_at) / Fold change /veh ANKRD19P (11752326_a_at) / RFU OR2T12 /// OR2T33 /// OR2T8 (11738714_s_at) / Fold change /veh OR2T12 /// OR2T33 /// OR2T8 (11738714_s_at) / RFU VCAN (11748164_a_at) / Fold change /veh VCAN (11748164_a_at) / RFU JSRP1 (11732532_at) / Fold change /veh JSRP1 (11732532_at) / RFU KRTAP10-11 (11738290_x_at) / Fold change /veh KRTAP10-11 (11738290_x_at) / RFU MYO3A (11730013_a_at) / Fold change /veh MYO3A (11730013_a_at) / RFU EBF3 (11725865_a_at) / Fold change /veh EBF3 (11725865_a_at) / RFU CAMK2N1 (11719241_x_at) / Fold change /veh CAMK2N1 (11719241_x_at) / RFU C5orf56 (11738088_a_at) / Fold change /veh C5orf56 (11738088_a_at) / RFU OLFML3 (11715873_a_at) / Fold change /veh OLFML3 (11715873_a_at) / RFU LOC100653217 /// NTM (11731650_a_at) / Fold change /veh LOC100653217 /// NTM (11731650_a_at) / RFU MAPK11 (11762145_a_at) / Fold change /veh MAPK11 (11762145_a_at) / RFU FIZ1 (11724087_x_at) / Fold change /veh FIZ1 (11724087_x_at) / RFU OASL (11726364_x_at) / Fold change /veh OASL (11726364_x_at) / RFU SOX15 (11748057_x_at) / Fold change /veh SOX15 (11748057_x_at) / RFU CD79A (11719716_a_at) / Fold change /veh CD79A (11719716_a_at) / RFU HIST1H1D (11736915_at) / Fold change /veh HIST1H1D (11736915_at) / RFU CASKIN2 (11723855_a_at) / Fold change /veh CASKIN2 (11723855_a_at) / RFU LOC730098 (11760151_x_at) / Fold change /veh LOC730098 (11760151_x_at) / RFU OR4N2 (11742367_at) / Fold change /veh OR4N2 (11742367_at) / RFU PRRT2 (11749266_a_at) / Fold change /veh PRRT2 (11749266_a_at) / RFU SNX32 (11753110_a_at) / Fold change /veh SNX32 (11753110_a_at) / RFU CDHR5 (11726645_a_at) / Fold change /veh CDHR5 (11726645_a_at) / RFU RCAN1 (11760418_a_at) / Fold change /veh RCAN1 (11760418_a_at) / RFU FAM167A (11723789_a_at) / Fold change /veh FAM167A (11723789_a_at) / RFU FAM26E (11764081_at) / Fold change /veh FAM26E (11764081_at) / RFU ISYNA1 (11749810_s_at) / Fold change /veh ISYNA1 (11749810_s_at) / RFU ACY1 (11761880_at) / Fold change /veh ACY1 (11761880_at) / RFU 11764098_at / Fold change /veh 11764098_at / RFU SAMD14 (11745864_x_at) / Fold change /veh SAMD14 (11745864_x_at) / RFU NPB (11741838_a_at) / Fold change /veh NPB (11741838_a_at) / RFU TMPRSS6 (11731388_a_at) / Fold change /veh TMPRSS6 (11731388_a_at) / RFU KRTAP10-2 (11738614_at) / Fold change /veh KRTAP10-2 (11738614_at) / RFU ARHGAP8 /// PRR5-ARHGAP8 (11727945_x_at) / Fold change /veh ARHGAP8 /// PRR5-ARHGAP8 (11727945_x_at) / RFU KRTAP5-7 /// NADSYN1 (11734609_at) / Fold change /veh KRTAP5-7 /// NADSYN1 (11734609_at) / RFU RASL12 (11751679_a_at) / Fold change /veh RASL12 (11751679_a_at) / RFU CDKN2B (11736163_a_at) / Fold change /veh CDKN2B (11736163_a_at) / RFU PRF1 (11729649_at) / Fold change /veh PRF1 (11729649_at) / RFU, ZNF638 /// ZNF638-IT1 / Fold change vs veh, ZNF638 /// ZNF638-IT1 / RFU, PANK3 / Fold change vs veh, PANK3 / RFU, SH3YL1 / Fold change vs veh, SH3YL1 / RFU, ZEB2 / Fold change vs veh, ZEB2 / RFU, NRIP1 / Fold change vs veh, NRIP1 / RFU, PTTG1IP / Fold change vs veh, PTTG1IP / RFU, CAPN2 / Fold change vs veh, CAPN2 / RFU, MED14 / Fold change vs veh, MED14 / RFU, SNORA58 / Fold change vs veh, SNORA58 / RFU, C1orf63 / Fold change vs veh, C1orf63 / RFU, LRRFIP1 / Fold change vs veh, LRRFIP1 / RFU, NDUFAF7 / Fold change vs veh, NDUFAF7 / RFU, SLC12A2 / Fold change vs veh, SLC12A2 / RFU, IBTK / Fold change vs veh, IBTK / RFU, ESF1 / Fold change vs veh, ESF1 / Fold change vs veh, TMEM50B / RFU, TAOK1 / Fold change vs veh, TAOK1 / RFU, ACBD3 / Fold change vs veh, ACBD3 / RFU, TMA16 / Fold change vs veh, TMA16 / RFU, RWDD3 / Fold change vs veh, RWDD3 / RFU, BCAT1 / Fold change vs veh, BCAT1 / RFU, EDEM3 / Fold change vs veh, EDEM3 / RFU, TMEM33 / Fold change vs veh, TMEM33 / RFU, WDR75 / Fold change vs veh, WDR75 / RFU, AHCTF1 / Fold change vs veh, AHCTF1 / RFU, TFRC / Fold change vs veh, TFRC / RFU, ZDHHC17 / Fold change vs veh, ZDHHC17 / RFU, NOM1 / Fold change vs veh, NOM1 / RFU, ARL8B / Fold change vs veh, ARL8B / RFU, ZBTB11 / Fold change vs veh, ZBTB11 / RFU, TAMM41 / Fold change vs veh, TAMM41 / RFU, KIAA1704 /// LOC100996395 / Fold change vs veh, KIAA1704 /// LOC100996395 / RFU, ING1 / Fold change vs veh, ING1 / RFU, TRMT61B / Fold change vs veh, TRMT61B / RFU, FUBP3 / Fold change vs veh, FUBP3 / RFU, TP53 / Fold change vs veh, TP53 / RFU, TNKS2 / Fold change vs veh, TNKS2 / RFU, ZFP14 / Fold change vs veh, ZFP14 / RFU, ACTR2 / Fold change vs veh, ACTR2 / RFU, PPP3R1 / Fold change vs veh, PPP3R1 / RFU, PIK3R1 / Fold change vs veh, PIK3R1 / RFU, HNRNPA1 / Fold change vs veh, HNRNPA1 / RFU, RNF170 / Fold change vs veh, RNF170 / RFU, ZNF28 / Fold change vs veh, ZNF28 / RFU, RNGTT / Fold change vs veh, RNGTT / RFU, OGT / Fold change vs veh, OGT / RFU, BRD1 / Fold change vs veh, BRD1 / RFU, MARS / Fold change vs veh, MARS / RFU, ZNF655 / Fold change vs veh, ZNF655 / RFU, FAHD1 / Fold change vs veh, FAHD1 / RFU, BDP1 / Fold change vs veh, BDP1 / RFU, LRRCC1 / Fold change vs veh, LRRCC1 / RFU, ARID1A / Fold change vs veh, ARID1A / RFU, ZNF146 / Fold change vs veh, ZNF146 / RFU, ZNF330 / Fold change vs veh, ZNF330 / RFU, GPN3 / Fold change vs veh, GPN3 / RFU, C9orf123 / Fold change vs veh, C9orf123 / RFU, N4BP2L2 / Fold change vs veh, N4BP2L2 / RFU, ARFIP1 / Fold change vs veh, ARFIP1 / RFU, FAM179B / Fold change vs veh, FAM179B / RFU, BCL10 / Fold change vs veh, BCL10 / RFU, UHRF1BP1L / Fold change vs veh, UHRF1BP1L / RFU, BET1 / Fold change vs veh, BET1 / RFU, CNOT2 / Fold change vs veh, CNOT2 / RFU, ZNF268 / Fold change vs veh, ZNF268 / Fold change vs veh, ZNF507 / RFU, DGCR2 / Fold change vs veh, DGCR2 / RFU, WDSUB1 / Fold change vs veh, WDSUB1 / Fold change vs veh, HSP90B1 /// MIR3652 / RFU, ADSS / Fold change vs veh, ADSS / RFU, GK / Fold change vs veh, GK / RFU, ZNF148 / Fold change vs veh, ZNF148 / RFU, TAF9 / Fold change vs veh, TAF9 / RFU, SLC1A5 / Fold change vs veh, SLC1A5 / RFU, SLMO2 / Fold change vs veh, SLMO2 / RFU, ABCC4 / Fold change vs veh, ABCC4 / RFU, LOC101060439 /// RAP1B / Fold change vs veh, LOC101060439 /// RAP1B / RFU, RFX7 / Fold change vs veh, RFX7 / RFU, GTPBP10 / Fold change vs veh, GTPBP10 / RFU, CNEP1R1 / Fold change vs veh, CNEP1R1 / RFU, BIVM-ERCC5 /// ERCC5 / Fold change vs veh, BIVM-ERCC5 /// ERCC5 / RFU, ILF3 / Fold change vs veh, ILF3 / RFU 11762660_at / Fold change /veh 11762660_at / RFU VCAN (11757783_s_at) / Fold change /veh VCAN (11757783_s_at) / RFU DDX43 (11728927_at) / Fold change /veh DDX43 (11728927_at) / RFU KRT8 (11758188_x_at) / Fold change /veh KRT8 (11758188_x_at) / RFU NKD1 (11759106_at) / Fold change /veh NKD1 (11759106_at) / RFU SRD5A1 (11742802_a_at) / Fold change /veh SRD5A1 (11742802_a_at) / RFU TPSAB1 /// TPSB2 (11721975_s_at) / Fold change /veh TPSAB1 /// TPSB2 (11721975_s_at) / RFU GSTM3 (11746129_a_at) / Fold change /veh GSTM3 (11746129_a_at) / RFU IL23R (11737362_x_at) / Fold change /veh IL23R (11737362_x_at) / RFU TMEM51 (11727254_a_at) / Fold change /veh TMEM51 (11727254_a_at) / RFU PIWIL2 (11732686_x_at) / Fold change /veh PIWIL2 (11732686_x_at) / RFU ORM1 (11744905_x_at) / Fold change /veh ORM1 (11744905_x_at) / RFU CCDC152 (11743942_at) / Fold change /veh CCDC152 (11743942_at) / RFU ECM1 (11717891_a_at) / Fold change /veh ECM1 (11717891_a_at) / RFU IL23R (11748794_a_at) / Fold change /veh IL23R (11748794_a_at) / RFU TNFAIP8L3 (11732012_x_at) / Fold change /veh TNFAIP8L3 (11732012_x_at) / RFU MBOAT4 (11741988_at) / Fold change /veh MBOAT4 (11741988_at) / RFU 11764193_at / Fold change /veh 11764193_at / RFU TMEM53 (11763286_at) / Fold change /veh TMEM53 (11763286_at) / RFU MAGEB2 (11727129_at) / Fold change /veh MAGEB2 (11727129_at) / RFU TMEM200A (11744735_a_at) / Fold change /veh TMEM200A (11744735_a_at) / RFU CCDC152 (11751479_a_at) / Fold change /veh CCDC152 (11751479_a_at) / RFU FAM211A (11726209_a_at) / Fold change /veh FAM211A (11726209_a_at) / RFU RGS16 (11746705_a_at) / Fold change /veh RGS16 (11746705_a_at) / RFU VCAN (11755009_s_at) / Fold change /veh VCAN (11755009_s_at) / RFU RHOB (11743442_s_at) / Fold change /veh RHOB (11743442_s_at) / RFU RGS16 (11720943_a_at) / Fold change /veh RGS16 (11720943_a_at) / RFU RGS16 (11720944_at) / Fold change /veh RGS16 (11720944_at) / RFU, VPS4B / Fold change vs veh, VPS4B / RFU, CREB1 / Fold change vs veh, CREB1 / RFU, DNAJC13 / Fold change vs veh, DNAJC13 / RFU, GNAQ / Fold change vs veh, GNAQ / RFU, CDK5R1 / Fold change vs veh, CDK5R1 / RFU, ZRANB3 / Fold change vs veh, ZRANB3 / RFU, CUL4A / Fold change vs veh, CUL4A / RFU, CCNY / Fold change vs veh, CCNY / RFU, UFL1 / Fold change vs veh, UFL1 / RFU, COG3 / Fold change vs veh, COG3 / RFU, DIAPH2 / Fold change vs veh, DIAPH2 / RFU, SKA2 / Fold change vs veh, SKA2 / RFU, AFF3 / Fold change vs veh, AFF3 / RFU, LMF1 / Fold change vs veh, LMF1 / RFU, IPO11 / Fold change vs veh, IPO11 / RFU, DFFB / Fold change vs veh, DFFB / RFU, FOXP1 / Fold change vs veh, FOXP1 / RFU, CARD8 / Fold change vs veh, CARD8 / RFU, STRN3 / Fold change vs veh, STRN3 / RFU, ADK / Fold change vs veh, ADK / RFU, RASSF2 / Fold change vs veh, RASSF2 / RFU, WIPF1 / Fold change vs veh, WIPF1 / RFU, LARP1B / Fold change vs veh, LARP1B / RFU, RASA1 / Fold change vs veh, RASA1 / RFU, RB1 / Fold change vs veh, RB1 / RFU, PPFIA1 / Fold change vs veh, PPFIA1 / RFU, MAT2A / Fold change vs veh, MAT2A / RFU, CCT5 / Fold change vs veh, CCT5 / RFU, WDR92 / Fold change vs veh, WDR92 / RFU, CUX1 / Fold change vs veh, CUX1 / RFU, TTC7A / Fold change vs veh, TTC7A / RFU, TMEM135 / Fold change vs veh, TMEM135 / RFU, DEPTOR / Fold change vs veh, DEPTOR / RFU, CPM / Fold change vs veh, CPM / RFU, DNAJB6 / Fold change vs veh, DNAJB6 / RFU, CACNA2D3 / Fold change vs veh, CACNA2D3 / RFU, DTX4 / Fold change vs veh, DTX4 / RFU, TFCP2 / Fold change vs veh, TFCP2 / RFU, GMCL1 /// GMCL1P1 / Fold change vs veh, GMCL1 /// GMCL1P1 / RFU, AEBP2 / Fold change vs veh, AEBP2 / RFU, SNHG1 /// SNORD22 /// SNORD25 /// SNORD26 /// SNORD27 /// SNORD28 /// SNORD29 /// SNORD31 / Fold change vs veh, SNHG1 /// SNORD22 /// SNORD25 /// SNORD26 /// SNORD27 /// SNORD28 /// SNORD29 /// SNORD31 / Fold change (Aza/veh), C12orf56 (ProbeSet 11735607_a_at) / Fold change (ACY-1035/veh), C12orf56 (ProbeSet 11735607_a_at) / Fold change (Aza/veh), FGFR1OP (ProbeSet 11751329_s_at) / Fold change (ACY-1035/veh), FGFR1OP (ProbeSet 11751329_s_at) / Fold change (Aza/veh), VPS36 (ProbeSet 11739960_a_at) / Fold change (ACY-1035/veh), VPS36 (ProbeSet 11739960_a_at) / RFU SYPL1 (11715823_x_at) / Fold change /veh SYPL1 (11715823_x_at) / RFU IGFBP7 (11715501_s_at) / Fold change /veh IGFBP7 (11715501_s_at) / RFU REEP3 (11722064_at) / Fold change /veh REEP3 (11722064_at) / RFU IGLL1 (11728026_x_at) / Fold change /veh IGLL1 (11728026_x_at): dose or concentration left out as unconfirmed
Conditions: ProbeSet 11753616_s_at; LIST B

For `Nc1ncn([C@@H]2O[C@H](CO)[C@@H](O)[C@H]2O)c(=O)n1` [azacitidine], the “Fold change vs veh, ARL8B” value was 0.84.
